Test results from paper PMC7504770, “Mechanistic Insights into the Chaperoning of Human Lysosomal-Galactosidase Activity: Highly Functionalized Aminocyclopentanes and C-5a-Substituted Derivatives of 4-epi-Isofagomine” (Molecules, 2020).

Assays:
[1] = target: T1, β-glucosidase/β-galactosidase from Agrobacterium sp. (Abg, GH1) (Agrobacterium sp., UniProt P12614); assay: Ki determination, Agrobacterium sp. β-glucosidase/β-galactosidase (Abg); assay type: biochemical; details: for Ki: 37 °C, pH 7, substrate pNP β-Gal, read-out: Ki Abg (β-Glc/Gal) (GH1)
T1 sequence (P12614 1-459): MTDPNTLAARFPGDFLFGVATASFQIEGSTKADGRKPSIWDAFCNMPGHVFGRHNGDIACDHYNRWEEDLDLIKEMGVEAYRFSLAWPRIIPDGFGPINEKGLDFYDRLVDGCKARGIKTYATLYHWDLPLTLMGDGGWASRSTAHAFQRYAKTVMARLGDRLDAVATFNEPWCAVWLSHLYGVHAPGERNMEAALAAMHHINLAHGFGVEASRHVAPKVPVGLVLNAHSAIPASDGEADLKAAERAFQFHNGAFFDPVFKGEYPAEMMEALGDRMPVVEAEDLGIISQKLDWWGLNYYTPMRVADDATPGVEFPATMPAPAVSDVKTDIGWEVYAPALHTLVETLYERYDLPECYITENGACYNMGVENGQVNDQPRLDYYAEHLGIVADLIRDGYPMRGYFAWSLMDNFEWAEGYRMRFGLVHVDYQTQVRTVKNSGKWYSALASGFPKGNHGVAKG
Method: (§1) Kinetic studies were performed at 37 °C in an appropriate buffer (specific conditions depicted below). In a typical assay, the enzyme was incubated with different inhibitor concentrations for up to 5 min before initiating the reaction by the addition of substrate. The initial reaction rate was measured by monitoring the increase in absorbance at 400 nm for up to ten minutes using a Cary4000 (Varian, Palo Alto, CA, USA). Ki determinations were performed using at least two different substrate concentrations. For each inhibitor, a range of four to six inhibitor concentrations bracketing the ultimately determined Ki value was used for each substrate concentration. Dixon plots (1/v vs. [I]) were constructed to validate the use of competitive inhibition model. The data were then fit using non-linear regression analysis with Grafit 7.0 [Erithacus Software, UK].
n.i. stands for no inhibition or weak inhibition with an estimated Ki value higher than 1 mM.
Agrobacterium sp. β-glucosidase: [69, 70] 50 mM sodium phosphate buffer (pH 7).

[2] = target: α-glucosidase from S. cerevisiae (GH13); assay: Ki determination, S. cerevisiae α-glucosidase; assay type: biochemical; details: 37 °C, pH 7.0, substrate pNP α-Glc; read-out: Ki S. cer. (α-Glc) (GH13)
Method: as §1, with “UK]. […] S. cerevisiae α-Glucosidase: 50 mM sodium phosphate buffer (pH 7.0).” for “UK].”

Row | Structure (SMILES) | Ki [1] | Ki [2] | fold weaker binding than 17, GH1 bacterial glycosidase ([1]; compared to inhibitor 17)
1 | CCCCCCCCNC1C=C(CO)C(O)C(O)C1O (stereo not drawn) [Compound 1, N-octyl-epi-valienamine] | 7.7 µM | > 1000 µM | 
2 | CCCCCCCCN[C@H]1[C@H](O)[C@@H](O)[C@@H](O)[C@H]1CO [Compound 16] | 0.001 µM | > 1000 µM | 
3 | CN(C)c1cccc2c(S(=O)(=O)NCCCCCC[C@H]3NC[C@@H](O)[C@@H](O)[C@H]3CO)cccc12 [Compound 22] | 0.0003 µM | > 1000 µM | 
4 | CN(C)c1cccc2c(S(=O)(=O)NCCCCCCN[C@H]3C[C@@H](O)[C@@H](O)[C@H]3CO)cccc12 [Compound 31, (1R,2S,3R,4S)-3-Hydroxymethyl-4-(6′-dansylaminohexylamino)cyclopentane-1,2-diol] | 0.0035 µM | > 1000 µM | 
5 | CN(C)c1cccc2c(S(=O)(=O)NCCCCCCN[C@H]3[C@H](F)[C@@H](O)[C@@H](O)[C@H]3CO)cccc12 [Compound 37, (1S,2S,3S,4R,5R)-4-(6′-Dansylaminohexyl)amino-3-fluoro-5-hydroxymethylcyclopentane-1,2-diol] | 0.077 µM | 22.5 µM | 64 fold
